Test results taken from publication PMC11676734, “Novel Cyclic Peptide–Drug Conjugate P6-SN38 Toward Targeted Treatment of EGFR Overexpressed Non-Small Cell Lung Cancer” (Pharmaceutics, 2024).
Positions of bridges follow the written chain, without caps; N, C: chain ends. Residues, ends and D or L forms follow the SMILES beside them. *: point of attachment. X1 = CCc1c2c(nc3ccc(O)cc13)-c1cc3c(c(=O)n1C2)COC(=O)[C@@]3(CC)OC(=O)CCC(=O)*; GABA = NCCCC(=O)O

What was measured:
[1] = Mice body weight during efficacy study; type: in vivo, NOD/SCID (nude) mice; details: i.v. once a week, 3 times; P6-SN38 10 mg/kg, Erbitux 10 mg/kg, free SN38 3 mg/kg; 18 days; N = 4
Protocol: (§1) When tumors reached~50 mm^3, mice were injected via tail vein (i.v.).
(§2) The mice’s weight and tumor volumes were measured every 2 days. The tumor sizes were measured by using the hands-on digital caliper method, and the tumor volumes were calculated according to the Formula (1). Tumor volume (mm^3) = 0.5 × Tumor Length × Tumor Width^2(1)
(§3) The resected tumors are shown in (C). N = 4 in each group. * p < 0.05, ** p < 0.005, *** p < 0.001, **** p < 0.0001.

H1299 cells [2] = experiment: Apoptosis assay, Annexin V-FITC/PI flow cytometry; type: cell-based; details: 2.5 µM, 6 h pre-treatment, wash, mean ± SD; for apoptotic rate / late-stage apoptosis rate: 24 h; for apoptosis / late apoptosis rate: 48 h
Protocol: H1299 cells were seeded at the concentration of 5 × 10^4 cells/mL in the RPMI 1640 growth medium and incubated in 6-well plates at 37 °C under 5% CO2. The next day, the medium was removed, and P6-SN38, or free SN38 (2.5 µM), in fresh medium was added and incubated for 6 h. Then, the medium was removed by washing out, fresh medium was added, and the plates were incubated for an additional 24 and 48 h. The cells were collected with 0.25% trypsin/EDTA solution and washed with PBS twice at 1500 rpm for 5 min. After that, Annexin-FITC (5 µM) and propidium Iodide (PI, 5 µM) were added (both from Abcam, Cambridge, UK). The cells were incubated for 15 min in the dark, and the samples (2 × 10^4 cells) were analyzed by flow cytometry.
SN38, a potent topoisomerase I inhibitor, disrupts DNA replication, leading to cell cycle arrest and apoptosis. To evaluate and compare the effects of peptide-bound SN38 (P6-SN38) and free SN38 on DNA damage and cell cycle distribution (Section 3.4), H1299 cells were pre-treated with both compounds at a concentration of 2.5 µM for 6 h, followed by washing and continued incubation for 24 or 48 h (Figure 3).
Figure 3 Apoptosis of H1299 cells estimated through cell survival percentage by binding with annexin V-FITC. H1299 cells were pre-incubated with P6-SN38 and SN38 as described in Section 2.6. Cells were stained with annexin and PI and analyzed by flow cytometry; * p < 0.05, *** p < 0.001, **** p < 0.0005. “ns” means non-significant.

H1299 (EGFR+) tumor = experiment: In vivo tumor growth inhibition, H1299 (EGFR+) xenograft; set-up: species or system NOD/SCID (nude) mice; details: 3 times, N = 4
Protocol: (§4) Animal protocols were approved by the Institutional Animal Care and Use Committee at Ariel University. NOD/SCID (nude) mice were injected with H1299 in the right flank and K562 cells in the left flank (10^6 cells each), so that each mouse developed dual H1299 and K562 xenografts.
as §1, §2, §3

EGFR− HEK293 cells = experiment: XTT cell viability / cytotoxicity, HEK293 cells; type: cell-based; details: 6 h pre-incubation, wash; for effect on EGFR− HEK-293 cells: further incubation, in words; for IC50: HEK293, XTT
Protocol: (§5) Cell proliferation in the presence of P6-SN38 was evaluated using a commercial XTT assay kit (Enhanced Cell Counting Kit 8 (WST-8/CCK8); Elabscience, Houston, TX, USA). A total of 10^4 cells per well were seeded in 96-well plates and incubated overnight in complete RPMI growth medium. After washing, the cells were cultured in 100 µL of fresh medium containing varying concentrations of free SN38 or PDC for 3 h and 6 h (pre-incubation). Following this, the cells were washed again and incubated for an additional 24, 48, and 72 h. The XTT reagent was then added to each well, and the plate was incubated for 2 h at 37 °C. For cytotoxicity analysis, absorbance was measured at 450 nm and 630 nm using a TECAN Infinite M200 ELISA reader (Citrine Solutions, Oranit, Israel). All assays were performed in triplicate, and each experiment was repeated three times.
(§6) Figure 2 Cell viability after 6 h of pre-incubation of EGFR+ H1299 (A) and EGFR− HEK293 (B) cell lines with P6-SN38 and SN38. H1299 and HEK293 cells were cultured in a 96-well plate and pre-incubated with six different concentrations (0.5, 2.5, 5, 10, 15, and 25 μM) of P6-SN38 or SN38 for 6 h, washed out, and incubated additionally for 24 h, 48 h, and 72 h. Cell viability was assessed using an XTT assay, with the viability of untreated control cells set at 100%. The viability of treated cells was expressed as a percentage relative to the control. Data are presented as the mean ± standard deviation (SD).

H1299 cells [3] = experiment: Cell cycle analysis, PI flow cytometry; type: cell-based; details: 2.5 µM, 6 h pre-treatment, in words
Protocol: Cell cycle analysis was conducted using a cell cycle detection kit (Biotopped, Huangshan, China). H1299 cells were seeded in 5 × 10^4 cells/mL concentration in the complete growth medium. (RPMI 1640) Incubation was performed in 6-well plates at 37 °C under 5% CO2. The next day, the medium was removed, and the fresh medium containing P6-SN38 or free SN38 (2.5 µM) was added and incubated for 6 h. Then, the medium was removed by washing, a fresh medium was added, and the cells were incubated for an additional 24 and 48 h. Then, the cells were trypsinized and washed with PBS twice at 1500 rpm for 5 min. Cells were fixed in 66% ethanol for 2 h. Then, cells were incubated with 0.2 mL buffer solution containing PI (25 μL) and RNase A (10 μL) after being rinsed with cold PBS (according to the manufacturer’s protocol). Finally, the cell cycle was analyzed by Beckman CytoFLEX FCM (Bio-Rad Laboratories, Inc., Rishon Le Zion, Israel).
To investigate whether the observed growth inhibition and apoptosis were mediated by cell cycle arrest, we examined the effects of P6-SN38 and free SN38 on cell cycle progression in NSCLC H1299 cells. The cells were pre-treated with the compounds for 6 h, followed by an additional 24 or 48 h incubation period (Figure 4A,B).
Figure 4 Cell cycle arrest analysis of treatment with SN38 and P6-SN38. Cell cycle distribution of H1299 cells detected by flow cytometry after 24 h (A) and 48 h (B) treatment with SN38 and P6-SN38 at 2.5 µM. A total of 1 × 10^6 cells were pre-incubated with P6-SN38 or SN38 for 6 h, followed by additional incubation for 24 h and 48 h. The cells were then stained with propidium iodide (PI) and analyzed by flow cytometry (C). The data in A and B are presented as the mean ± SD (n = 3). “ns” means non-significant. * p < 0.05, *** p < 0.001, **** p < 0.0005. “ns” means non-significant. TEXT PRINTED IN THE PICTURE: (C) 01-H1299_P6_24h-B9.fcs: %G1 : 6.76; %S : 52.1; %G2 : 40.6 | (C) 01-H1299_P6_48h-D8.fcs: %G1 : 9.76; %S : 47.2; %G2 : 40.6 | (C) 01-H1299_SN_24h-A9.fcs: %G1 : 0; %S : 39.4; %G2 : 54.0 | (C) 01-H1299_SN_48h-C8.fcs: %G1 : 9.66; %S : 61.4; %G2 : 27.8 DOUBTS OF THE COPYIST ABOUT THIS PICTURE: 01-H1299_P6_24h-B9.fcs, %G1: small print, 6.76 could be 8.76 or 6.78 / 01-H1299_P6_24h-B9.fcs, %G2: small print, 40.6 could be 40.8 / 01-H1299_P6_48h-D8.fcs, %G1: small print, 9.76 could be 9.78 / 01-H1299_P6_48h-D8.fcs, %G2: small print, 40.6 could be 40.8 / 01-H1299_SN_24h-A9.fcs, %S: small print, 39.4 could be 38.4 / 01-H1299_SN_48h-C8.fcs, %G1: small print, 9.66 could be 9.68 or 9.86 / 01-H1299_SN_48h-C8.fcs, %G2: small print, 27.8 could be 27.6 / The untreated samples (01-H1299_24h_UT-A6.fcs, 01-H1299_UT_48h-C6.fcs) were left out because they stand for no substance. The RMSD values were left out as fit statistics.

K562 (EGFR−) tumor = experiment: In vivo tumor growth inhibition, K562 (EGFR−) xenograft; set-up: species or system NOD/SCID (nude) mice; details: 10 mg/kg i.v. once a week, 3 times
Protocol: as §4, §1, §2
Figure 6 In vivo effect of P6-SN38 conjugate in NSCLC model (10 mg/kg, once a week). […] The resected tumors are shown in (C). N = 4 in each group. * p < 0.05, ** p < 0.005, *** p < 0.001, **** p < 0.0001.

EGFR+ H1299 cells = experiment: XTT cell viability / cytotoxicity, H1299 cells; type: cell-based; details: 6 h pre-incubation, wash
Protocol: as §5, §6

| SMILES | mice weight loss, in words [1] | apoptotic rate (H1299 cells [2]) | late-stage apoptosis rate (H1299 cells [2]) | apoptosis (H1299 cells [2]) | late apoptosis rate (H1299 cells [2]) | H1299 tumor eradication (H1299 (EGFR+) tumor; 10 mg/kg i.v. once a week, day 18) | effect on EGFR− HEK-293 cells (EGFR− HEK293 cells) | IC50 (EGFR− HEK293 cells; 48 h incubation) | IC50 (EGFR− HEK293 cells; 72 h incubation) | cell cycle phase of arrest (H1299 cells [3]; 24 h) | cell cycle phase of arrest (H1299 cells [3]; 48 h) | effect on growth of K562 (EGFR−) tumors, in words (K562 (EGFR−) tumor; 18 days) | K562 tumor volume (K562 (EGFR−) tumor; day 18, initial ~50 mm^3, control 1772 ± 265, N = 4) | IC50 (EGFR+ H1299 cells; 48 h incubation) | IC50 (EGFR+ H1299 cells; 72 h incubation) | effect on tumor growth, in words (H1299 (EGFR+) tumor; i.v. once a week, Erbitux 10 mg/kg, free SN38 3 mg/kg, 18 days) |
| --- | --- | --- | --- | --- | --- | --- | --- | --- | --- | --- | --- | --- | --- | --- | --- | --- |
| CCc1c2c(nc3ccc(O)cc13)-c1cc3c(c(=O)n1C2)COC(=O)[C@@]3(CC)OC(=O)CCC(=O)NCCCC(=O)N[C@H]1CSSC[C@@H](C(N)=O)NC(=O)[C@H]([C@@H](C)CC)NC(=O)[C@H](Cc2ccc(O)cc2)NC(=O)[C@H](CO)NC(=O)CNC(=O)[C@@H]2CCCN2C(=O)[C@H](C(C)C)NC(=O)[C@H](Cc2c[nH]cn2)NC1=O [P6-SN38] ({X1-GABA}-CHVPGSYIC-NH2; disulfide 1-9) | minimal weight loss | 12.9 ± 4.2% | 14.1 ± 7.3% | 21.48 ± 9.90% | 25.32 ± 10.00% | eradicated completely in 3 out of 4 mice | nearly no effect | > 50 µM | > 50 µM | both the S and G2/M phases | S/G2 phase arrest | did not affect the growth | 1522 ± 561 mm^3 | 2.5 µM | 0.9 µM | – |
| CCc1c2c(nc3ccc(O)cc13)-c1cc3c(c(=O)n1C2)COC(=O)[C@]3(O)CC [SN38] | significant weight loss | 16.3 ± 6.4% | 15.2 ± 6.8% | 19.27 ± 5.11% | 26.80 ± 14.90% | – | active in both cell lines | 4.4 µM | 2.7 µM | G2/M phase arrest | S/G2 phase arrest | – | – | 0.8 µM | 0.5 µM | non-specific tumor reduction |
